Patent publication US6491894B1, “NGR receptor and methods of identifying tumor homing molecules that home to angiogenic vasculature using same” (The Burnham Institute, priority 1998, dated 2002)
Each block holds one molecule with its values, some of them ahead of it. Where no end group is shown, it is not given here.

Experiments:
CD13 = target: T1, CD13 (Gallus gallus, UniProt O57579); test: bFGF-induced angiogenesis in chicken chorioallantoic membrane (CAM); format: in vivo; details: topical, 3 days
T1 construct: CD13 is expressed in CAM angiogenic vasculature; from tissue; host or cells: chorioallantoic membrane of 10-day chicken embryos
T1 sequence (O57579 1-972): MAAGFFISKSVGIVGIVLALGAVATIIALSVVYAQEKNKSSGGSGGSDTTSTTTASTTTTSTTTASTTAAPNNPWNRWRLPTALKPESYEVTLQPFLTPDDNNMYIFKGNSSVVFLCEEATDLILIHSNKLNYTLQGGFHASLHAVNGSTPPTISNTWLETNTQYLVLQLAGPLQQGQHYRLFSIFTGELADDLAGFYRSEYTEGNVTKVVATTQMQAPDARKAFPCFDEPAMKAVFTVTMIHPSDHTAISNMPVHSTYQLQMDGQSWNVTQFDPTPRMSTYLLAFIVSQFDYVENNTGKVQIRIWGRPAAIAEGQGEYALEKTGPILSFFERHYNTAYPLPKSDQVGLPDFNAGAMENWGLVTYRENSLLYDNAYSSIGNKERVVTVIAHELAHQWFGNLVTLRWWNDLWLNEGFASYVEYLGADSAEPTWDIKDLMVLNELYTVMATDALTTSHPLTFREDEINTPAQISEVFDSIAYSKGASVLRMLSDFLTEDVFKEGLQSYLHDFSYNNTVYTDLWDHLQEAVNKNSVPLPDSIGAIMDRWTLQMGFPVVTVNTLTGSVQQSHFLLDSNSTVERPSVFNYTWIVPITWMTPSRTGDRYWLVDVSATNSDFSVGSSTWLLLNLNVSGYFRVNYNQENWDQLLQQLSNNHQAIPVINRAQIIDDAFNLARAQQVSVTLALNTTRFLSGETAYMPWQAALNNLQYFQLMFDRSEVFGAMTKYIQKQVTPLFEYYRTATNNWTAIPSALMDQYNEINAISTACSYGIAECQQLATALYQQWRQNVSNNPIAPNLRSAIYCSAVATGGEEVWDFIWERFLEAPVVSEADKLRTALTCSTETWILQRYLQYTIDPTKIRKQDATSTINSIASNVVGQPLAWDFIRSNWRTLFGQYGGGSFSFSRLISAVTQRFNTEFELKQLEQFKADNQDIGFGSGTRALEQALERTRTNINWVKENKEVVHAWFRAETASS
Description: Various treatments were applied topically, and, after 3 days, the filters and surrounding CAMs were resected and fixed in formalin.
Each bar represents the mean number of vessels and standard errors from 8 CAMs on each group.

CD13/aminopeptidase N = CD13/aminopeptidase N (Homo sapiens, UniProt P15144); details: cited from earlier work
CD13/APN [1] = target: T2, CD13/APN (Homo sapiens, UniProt P15144); test: Aminopeptidase enzymatic activity of immuno-isolated CD13 (Ala-pNA or Leu-pNA); format: biochemical; details: Kaposi's sarcoma tumor cell extracts
T2 construct: Experiments were performed using HL-60 cell extracts because they are known to express CD13/APN; endogenous in cells; host or cells: HL-60 cells (extract)
Method: Given that the NGR sequence closely resembles a reverse RGD sequence, NGR-containing phage were tested to determine whether they would bind to CD13/aminopeptidase (CD13/APN). Kaposi's sarcoma tumor cell octylglucoside extracts were used as a source of CD13/APN. Aminopeptidase enzymatic activity was measured in these extracts utilizing Ala-pNA or Leu-pNA as substrates by monitoring the absorbance of the samples at 405 nm (Look et al., supra (1989); Taylor, supra (1993); Amoscato et al., supra (1989), each of which is incorporated herein by reference).
The CD13 antibody alone had no aminopeptidase activity.

B16B15b mouse melanoma = test: In vivo panning against a melanoma tumor; details: 89 cloned phage recovered from B16B15b tumors, three rounds
Method: Mice bearing a melanoma were produced by implantation of B16B15b mouse melanoma cells, which produce highly vascularized tumors. B16B15b mouse melanoma cells were injected subcutaneously into the mammary fat pad of nude mice (2 months old) and tumors were allowed to grow until the diameter was about 1 cm. In vivo panning was performed as disclosed above. Approximately 1×10^12 transducing units of phage expressing the CX5C (SEQ ID NO:9), CX6C (SEQ ID NO:10) or CX7C (SEQ ID NO:11) library were injected, iv, and allowed to circulate for 4 min. Mice then were snap frozen in liquid nitrogen or perfused through the heart while under anesthesia, tumor tissue and brain (control organ) were removed, and phage were isolated as described above. Three rounds of in vivo panning were performed.
The amino acid sequences were determined for the inserts in 89 cloned phage recovered from the B16B15b tumors. The peptides expressed by these phage were represented by two predominant sequences, […] (SEQ ID NO:4; 52% of the clones sequenced) and WGTGLC (SEQ ID NO:18; 25% of the clones; see Table 2).

breast tumor = test: Viability of tumor cells obtained from tumors of treated mice; format: in vivo, mouse; details: 30 μg equivalent iv, tumors removed five days after treatment
Method: In addition, the viability of tumor cells obtained from tumors of mice treated with a tumor homing peptide/doxorubicin conjugate was compared to that of tumors from mice treated with free doxorubicin. In these experiments, breast tumor bearing mice were size matched with regard to the tumors, then treated intravenously with 30 μg equivalent of doxorubicin/RGD-4C ([…]; SEQ ID NO:1) or of free doxorubicin. Five days after treatment, the mice were euthanized and the tumors were removed. The tumor pairs were weighed and ground and the cell suspensions were plated (2 g tumor tissue per 150 mm plate).
Cell numbers were determined at 24 hours and 7 days after plating. Viability of tumor cells from the tumors of mice receiving the doxorubicin/RGD-4C ([…]; SEQ ID NO:1) conjugate was about 3 fold less than cells from tumors of mice treated with the free doxorubicin.

[2] = tested on: MDA-MB-435 breast carcinoma; test: Tumor therapy of mice bearing MDA-MB-435 breast carcinoma; format: in vivo, mouse
Method: Female 2-month old Balb c nu/nu mice (Harlan Sprague Dawley; San Diego Calif.) were used for these studies and were cared for according to the Burnham Institute animal facility guidelines. […] Tumors were allowed to grow to a size of about 1 cm^3 (about 5% of the mouse's body weight) before starting the treatment experiments, except for the toxicity experiments as discussed below.
Weekly doxorubicin/peptide conjugate or control treatments (5 μg/mouse/week of doxorubicin-equivalent) were administered intravenously. In some experiments, as indicated, a dose of 30 μg/mouse was administered every 3 weeks. […] As an additional control, in some experiments the tumor homing peptide was mixed with doxorubicin, without linking, and the mixture was administered to tumor bearing mice.
Mice were anesthetized with a tribromoethanol-based anesthetic mixture (AVERTIN; Papaioannou and Fox, Lab. Anim. 43:189-192 (1993)) before each treatment. Anesthetization facilitated the tail vein injections (final volume, 200 μl) and allowed precise serial three dimensional tumor size measurements. Tumor volume calculations were based on the equation for the volume of an ovaloid: V=4/3(nabc), where a, b, and c are ½ of the measured diameters in each of the three dimensions.
Briefly, mice with size-matched tumors (˜1000 mm^3) were randomized into four treatment groups (six animals per group): vehicle only, free doxorubicin, doxorubicin-control peptide, and doxorubicin-CNGRC (SEQ ID NO:8). Mice were treated at 5 μg/mouse/week of doxorubicin-equivalent, and the difference in tumor volumes between day 1 and day 28 determined (FIG. 11A).

[3] = tested on: MDA-MB-435 human breast carcinoma cells; details: for cell killing when agents not removed: after 24 hr
Method: (SEQ ID NO:19; control) conjugate (0.1 to 10 μg/well of doxorubicin-equivalent) for either 30 min or overnight. Following incubation, the agents were removed by extensive washing with PBS, then fresh medium added and incubation was continued.

[4] = tested on: MDA-MB-435 breast carcinoma; test: Tumor therapy of mice bearing MDA-MB-435 breast carcinoma; format: in vivo; details: 5 μg/mouse/week doxorubicin-equivalent
[5] = Acute toxicity in mice bearing extremely large tumors; details: 200 μg/mouse, tumors about 25% of body weight
CD13/APN [6] = target: T2, CD13/APN; test: Affinity chromatography of cell extracts on immobilized peptide; format: binding
Method: To further characterize the interaction of CD13/APN with the NGR peptide, affinity chromatography on the CNGRC peptide was performed. The column was prepared by coupling the CNGRC peptide to SEPHAROSE (Pharmacia; Piscataway N.J.). Elution was effected with soluble CNGRC peptide. […] Extracts of Molt-4 and MDA-MB-435 cells transfected with CD13/APN were also characterized by using affinity chromatography, with extracts of the mock transfected counterparts used as negative controls.
The fractions were also analyzed for CD13 enzymatic activity using AlapNA as the substrate.

[7] = tested on: MDA-MB-435 derived tumors; test: In vivo targeting of phage to breast carcinoma xenografts (phage recovery); set-up: species or system mouse; inhibition of CGSLVRC phage tumor homing by soluble peptide: dose or concentration left out as unconfirmed; details: for reduction of the amount of phage in the tumor by coinjection of free peptide: 500 μg free peptide coinjected with RGD-4C phage; for inhibition of tumor homing of CNGRCVSGCAGRC (NGR) phage by co-injected soluble peptide: breast carcinoma xenografts; for inhibition of tumor homing of RGD-4C phage by co-injected soluble peptide: increasing amounts of peptide
Method: When the tumors attained a diameter of about 1 cm, phage expressing a specific RGD-containing peptide were administered to the tumor bearing mouse. Similar results to those discussed below also were obtained with nude mice bearing tumors formed by implantation of human melanoma C8161 cells or by implantation of mouse B16 melanoma cells.
1×10^9 phage expressing the RGD-containing peptide, RGD-4C ([…]; SEQ ID NO:1; see, Koivunen et al., supra, 1995) or control (insertless) phage were injected intravenously (iv) into the mice and allowed to circulate for 4 min. The mice then were snap frozen or perfused through the heart while under anesthesia, and various organs, including tumor, brain and kidney, were removed and the phage present in the organs was quantitated (see U.S. Pat. No. 5,622,699; Pasqualini and Ruoslahti, supra, 1996).
Phage displaying tumor homing peptides were recovered from breast carcinoma xenografts. […] The mean number of phage recovered from the tumor or control tissue (brain) and the standard error of the mean (SEM) from triplicate platings are shown in FIG. 1.
An insertless phage with a different selective marker (ampicillin instead of tetracycline) was co-injected with the NGR phage at the same input to assess specificity within the same tumor-bearing animal. The ratios were calculated using the number of co-injected control ampicillin-resistant phage recovered from the same tissues. The phage were quantitated from triplicate platings on tetracycline (the homing phage) or ampicillin (control phage) selective plates. Various additional control phage were injected separately into tumor-bearing mice. These controls included: fd-tet phage without insert; unselected phage library mixtures; phage selected and shown to home to other normal vascular beds; and phage displaying peptides that were unrelated to NGR. The RGD-4C ([…]; SEQ ID NO:1) phage served as a positive control.

human αv-integrins = details: cited from earlier work
[8] = 5 μg/mouse/week doxorubicin-equivalent iv

T2 sequence (P15144 whole entry): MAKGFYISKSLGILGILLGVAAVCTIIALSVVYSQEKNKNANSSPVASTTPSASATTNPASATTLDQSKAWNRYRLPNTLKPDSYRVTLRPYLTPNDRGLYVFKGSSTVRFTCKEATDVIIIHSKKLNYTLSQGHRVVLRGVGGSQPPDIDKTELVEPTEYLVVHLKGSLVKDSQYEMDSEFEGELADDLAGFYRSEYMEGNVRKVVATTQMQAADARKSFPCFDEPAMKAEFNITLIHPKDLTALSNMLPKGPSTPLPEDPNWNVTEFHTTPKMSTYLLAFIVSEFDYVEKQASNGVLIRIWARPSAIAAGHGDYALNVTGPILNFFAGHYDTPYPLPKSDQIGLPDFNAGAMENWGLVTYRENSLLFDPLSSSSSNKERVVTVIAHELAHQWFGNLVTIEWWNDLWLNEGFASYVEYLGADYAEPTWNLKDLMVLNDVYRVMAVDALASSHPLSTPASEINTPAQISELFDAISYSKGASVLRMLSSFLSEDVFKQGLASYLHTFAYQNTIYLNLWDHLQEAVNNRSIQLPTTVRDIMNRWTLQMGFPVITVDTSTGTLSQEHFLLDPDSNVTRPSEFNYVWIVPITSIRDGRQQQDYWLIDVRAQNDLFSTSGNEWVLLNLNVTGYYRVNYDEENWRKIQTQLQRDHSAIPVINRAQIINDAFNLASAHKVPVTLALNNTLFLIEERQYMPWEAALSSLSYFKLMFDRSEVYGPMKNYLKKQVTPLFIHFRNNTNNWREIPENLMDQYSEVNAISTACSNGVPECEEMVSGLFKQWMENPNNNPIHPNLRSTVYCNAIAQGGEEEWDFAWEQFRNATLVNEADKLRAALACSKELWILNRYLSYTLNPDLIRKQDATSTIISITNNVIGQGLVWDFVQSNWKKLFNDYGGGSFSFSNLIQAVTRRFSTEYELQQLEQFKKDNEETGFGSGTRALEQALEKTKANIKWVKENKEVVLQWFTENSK
Chain of CD13/aminopeptidase N (P15144 whole entry): as above

Molecule: CCCCC[C@H](CC(=O)NO)C(=O)N[C@H](C(=O)N1CCC[C@H]1CO)C(C)C [actinonin]
effect on bFGF-induced angiogenesis in CAM (CD13): suppress bFGF-induced angiogenesis
block of cell-surface CD13/aminopeptidase N enzymatic activity (CD13/aminopeptidase N): potently blocked

inhibition of aminopeptidase activity captured by CD13 antibody (CD13/APN [1]): inhibited the activity
Molecule: c1cnc2c(c1)ccc1cccnc12 [o-phenanthroline]
block of cell-surface CD13/aminopeptidase N enzymatic activity (CD13/aminopeptidase N): potently blocked

Molecule: WGTGLC
share of the clones sequenced (B16B15b mouse melanoma): 25%

Molecule: doxorubicin/RGD-4C: doxorubicin conjugated to peptide CDCRGDCFC (SEQ ID NO:1) (cysteine pairing not given here; also: doxorubicin conjugate)
viability of tumor cells, less than cells from tumors of mice treated with free doxorubicin (breast tumor): about 3 fold
pulmonary metastasis [2, 8]: a lower incidence of pulmonary metastasis and fewer metastatic lesions
spread to regional lymph nodes [2, 8]: less spread to regional lymph nodes
survival [2, 8]: survived beyond the time when the doxorubicin control and conjugate control mice had died
tumor size versus doxorubicin control [2, 8]: significantly smaller tumors
time alive after control mice had died ([2]; dose escalation, 30 μg/mouse every three weeks for three cycles): more than 6 months
histopathological analysis of tumor vasculature ([2]; mouse, in vivo): pronounced destruction of the vasculature
cell death after 30 min exposure ([3]; 0.1 to 10 μg/well doxorubicin-equivalent, agents removed after 30 min, survival at 24 hours): cell death was present
cell killing when agents not removed [3]: cells were killed
gross examination of tumors (skin ulceration and tumor necrosis) [4]: marked skin ulceration and tumor necrosis
survival after acute dose [5]: survived for longer than one week

Molecule: CLSGSLSC
share of the clones sequenced (B16B15b mouse melanoma): 52%

CD13/APN obtained by affinity chromatography on immobilized peptide (CD13/APN [6]): yielded no CD13/APN
elution of CD13/APN from the CNGRC column by soluble peptide (CD13/APN [6]; Molt-4/CD13, MDA-MB-435/CD13 or HL-60 cell extracts): did not elute any activity
Molecule: O=c1[nH]cc(F)c(=O)[nH]1 [CARAC]

Molecule: ACDCRGDCFCG
reduction of the amount of phage in the tumor by coinjection of free peptide [7]: about tenfold

Molecule: GRGESP [reference compound]
reduction of the amount of phage in the tumor by coinjection of free peptide [7]: essentially had no effect

Molecule: CDCRGDCFC [RGD-4C]
inhibition of tumor homing of CNGRCVSGCAGRC (NGR) phage by co-injected soluble peptide [7]: partially inhibited
inhibition of tumor homing of RGD-4C phage by co-injected soluble peptide [7]: readily inhibited
potency in inhibiting NGR phage tumor homing, less potent than the CNGRC peptide ([7]; mouse, in vivo): 5-10 times
binding to αv-integrins (human αv-integrins): binds to human αv-integrins

Molecule: COc1cccc2c1C(=O)c1c(O)c3c(c(O)c1C2=O)C[C@@](O)(C(=O)CO)C[C@@H]3O[C@H]1C[C@H](N)[C@H](O)[C@H](C)O1 [doxorubicin, reference compound]
effect on tumor growth ([2]; relative to vehicle alone): essentially no effect on tumor growth
cell killing when agents not removed [3]: cells were killed
gross examination of tumors (skin ulceration and tumor necrosis) [4]: no such signs were observed

Molecule: CGSLVRC
inhibition of CGSLVRC phage tumor homing by soluble peptide [7]: inhibition of tumor homing

Molecule: GACVFSIAHECGA (not fully specified (bridges); also: cyclic, ring type not given here) [unrelated cyclic control peptide, reference compound]
inhibition of tumor homing of CNGRCVSGCAGRC (NGR) phage by co-injected soluble peptide [7]: had no effect
inhibition of tumor homing of RGD-4C phage by co-injected soluble peptide [7]: had no effect
